Key:
Experiment in all cases: SILAC LC-MS ABPP
Format in all cases: cell-based
Settings in all cases: 25 μM 2 h, live DM93 cells
Q96AT1 = target: T1, Q96AT1 (Homo sapiens, UniProt Q96AT1)
T1 construct: endogenous in cells; host or cells: DM93 cells (SILAC), treated live; soluble proteome analysed
Description: (§1) Cells were grown to 90-95% confluence before being washed once with warm, sterile DPBS (1×, 5 mL), followed by addition of 10 mL of serum-free media (supplemented with 1% L-glutamine) containing either DMSO or SuTEx fragment (in DMSO) was added. Light cells were treated with DMSO vehicle while the heavy cells were treated with DMSO or SuTEx fragment (in DMSO) and incubated for 2 hrs. After 2 hrs, the cells were treated with SuTEx alkyne probe (HHS475, 10 μL of 1000× DMSO stock) and incubated for an additional 2 hrs. The media was aspirated and cells washed with cold PBS (5 mL) and harvested. Cells were spun at 500×g for 5 min at 4° C. followed by removal of supernatant. Pellets were resuspended in 1 mL of cold DPBS and spun at 1,400×g for 3 min at 4° C. followed by removal of supernatant. The cells were lysed in PBS by sonication and fractionated (100,000×g, 45 min, 4° C.).The light and heavy soluble fractions were diluted to 2.3 mg/mL in PBS and 432 μL were used for analysis (1 mg total protein). The probe-modified proteomes were conjugated to desthiobiotin-PEG3-azide (10 μl of 10 mM stock in DMSO; 200 μM final concentration) using TCEP (10 μl of fresh 50 mM stock in water, 1 mM final concentration), TBTA ligand (33 μl of a 1.7 mM 4:1 t-butanol/DMSO stock, 100 μM final concentration) and CuSO4 (10 μl of 50 mM stock, 1 mM final concentration). Samples were vortexed to mix and incubated for 1 hr at room temperature. The heavy and light proteomes were mixed 1:1 and the subsequent steps, including LC-MS/MS data analysis, were performed as previously described^[8a].
(§2) Coupling cell-based screens with chemical proteomics can facilitate the identification of target protein and binding sites that engage and are irreversibly modified by covalent ligands^[12]. In these assays, covalent ligands block SuTEx activity-based probe (ABP) labeling at protein sites, and the competition of probe labeling can be used to quantify potency and selectivity across the proteome^[10a]. To facilitate quantitative chemical proteomics, DM93 melanoma cells were cultured using stable isotopic labeling by amino acids in cell culture (SILAC)^[13]. Cells cultured in “light” media were treated with dimethyl sulfoxide (DMSO) vehicle while cells cultured in “heavy” media were treated with SuTEx ligand (25 μM, 2 hours, 37° C.). Next, cells were treated with HHS-475 probe (100 μM, 2 hours, 37° C.) followed by lysis and processing of proteomes for analysis. Probe-modified proteins from the soluble fraction were conjugated to a desthiobiotin-azide tag by copper-catalyzed azide-alkyne cycloaddition (CuAAC)^[14] followed by mixing of the light and heavy proteomes. The combined proteomes were digested with trypsin protease to produce probe-modified peptides, followed by enrichment and purification by avidin affinity chromatography. Probe-modified peptides were resolved, identified, and quantified by high-resolution liquid chromatography-tandem mass spectrometry (LC-MS/MS). Resultant data were analyzed as previously described^[8a, 10a]. Table 2, below, lists sites of modification targeted by sulfonyl-triazole compounds HHS-0101, HHS-0201, HHS-0301, HHS-0401, and HHS-0701. The format of the table is as follows: protein Uniprot accession number (see uniprot.org); tyrosine site (amino acid position) modified; treatment (sulfonyl-triazole compound identification number, followed by Y (where if multiple compounds modify the same site, the compounds are separated by vertical lines).

Q9Y6D5 = target: T2, Q9Y6D5 (Homo sapiens, UniProt Q9Y6D5)
T2 construct: endogenous in cells; host or cells: DM93 cells (SILAC)
Description: as §1, §2

Q14157 = target: T3, Q14157 (Homo sapiens, UniProt Q14157)
T3 construct: performing SuTEx compound screening directly in cells; endogenous in cells; host or cells: DM93 cells (SILAC), soluble fraction
T3 sequence (Q14157 1-1087): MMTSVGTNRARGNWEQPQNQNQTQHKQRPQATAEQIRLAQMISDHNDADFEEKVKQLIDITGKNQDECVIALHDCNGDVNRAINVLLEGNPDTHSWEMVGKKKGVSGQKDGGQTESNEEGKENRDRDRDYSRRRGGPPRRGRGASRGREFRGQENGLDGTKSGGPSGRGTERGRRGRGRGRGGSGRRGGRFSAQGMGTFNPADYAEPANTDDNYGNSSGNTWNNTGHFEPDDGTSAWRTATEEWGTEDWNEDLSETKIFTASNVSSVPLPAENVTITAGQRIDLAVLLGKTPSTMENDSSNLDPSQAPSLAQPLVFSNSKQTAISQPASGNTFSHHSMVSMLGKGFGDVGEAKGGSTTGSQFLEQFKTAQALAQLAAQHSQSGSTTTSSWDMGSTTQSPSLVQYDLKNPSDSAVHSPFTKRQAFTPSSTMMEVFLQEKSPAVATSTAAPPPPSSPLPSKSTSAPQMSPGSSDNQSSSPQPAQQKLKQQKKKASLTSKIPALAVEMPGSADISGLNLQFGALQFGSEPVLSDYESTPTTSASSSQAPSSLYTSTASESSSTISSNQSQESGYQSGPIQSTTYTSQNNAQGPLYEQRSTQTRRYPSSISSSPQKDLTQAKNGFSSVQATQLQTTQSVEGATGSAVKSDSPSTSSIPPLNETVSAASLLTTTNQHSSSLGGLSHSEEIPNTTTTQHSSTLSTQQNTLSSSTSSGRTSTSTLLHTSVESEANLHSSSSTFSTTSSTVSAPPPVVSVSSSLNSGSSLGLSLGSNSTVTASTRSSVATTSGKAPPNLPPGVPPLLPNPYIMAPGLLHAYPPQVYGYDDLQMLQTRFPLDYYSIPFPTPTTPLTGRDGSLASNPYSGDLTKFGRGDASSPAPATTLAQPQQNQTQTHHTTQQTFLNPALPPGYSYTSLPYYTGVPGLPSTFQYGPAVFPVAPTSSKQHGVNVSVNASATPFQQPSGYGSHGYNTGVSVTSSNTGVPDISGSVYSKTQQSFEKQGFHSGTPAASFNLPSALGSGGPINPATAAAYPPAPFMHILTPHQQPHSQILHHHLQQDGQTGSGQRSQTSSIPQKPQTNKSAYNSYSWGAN
Description: as §1, §2

Q04637 = target: T4, Q04637 (Homo sapiens, UniProt Q04637)
T4 construct: performing SuTEx compound screening directly in cells; endogenous in cells; host or cells: DM93 cells (SILAC)
Description: as §1, §2

Q9ULV4 = target: T5, Q9ULV4 (Homo sapiens, UniProt Q9ULV4)
T5 construct: endogenous in cells; host or cells: DM93 cells (SILAC)
Description: as §1, §2

T4 sequence (Q04637 whole entry): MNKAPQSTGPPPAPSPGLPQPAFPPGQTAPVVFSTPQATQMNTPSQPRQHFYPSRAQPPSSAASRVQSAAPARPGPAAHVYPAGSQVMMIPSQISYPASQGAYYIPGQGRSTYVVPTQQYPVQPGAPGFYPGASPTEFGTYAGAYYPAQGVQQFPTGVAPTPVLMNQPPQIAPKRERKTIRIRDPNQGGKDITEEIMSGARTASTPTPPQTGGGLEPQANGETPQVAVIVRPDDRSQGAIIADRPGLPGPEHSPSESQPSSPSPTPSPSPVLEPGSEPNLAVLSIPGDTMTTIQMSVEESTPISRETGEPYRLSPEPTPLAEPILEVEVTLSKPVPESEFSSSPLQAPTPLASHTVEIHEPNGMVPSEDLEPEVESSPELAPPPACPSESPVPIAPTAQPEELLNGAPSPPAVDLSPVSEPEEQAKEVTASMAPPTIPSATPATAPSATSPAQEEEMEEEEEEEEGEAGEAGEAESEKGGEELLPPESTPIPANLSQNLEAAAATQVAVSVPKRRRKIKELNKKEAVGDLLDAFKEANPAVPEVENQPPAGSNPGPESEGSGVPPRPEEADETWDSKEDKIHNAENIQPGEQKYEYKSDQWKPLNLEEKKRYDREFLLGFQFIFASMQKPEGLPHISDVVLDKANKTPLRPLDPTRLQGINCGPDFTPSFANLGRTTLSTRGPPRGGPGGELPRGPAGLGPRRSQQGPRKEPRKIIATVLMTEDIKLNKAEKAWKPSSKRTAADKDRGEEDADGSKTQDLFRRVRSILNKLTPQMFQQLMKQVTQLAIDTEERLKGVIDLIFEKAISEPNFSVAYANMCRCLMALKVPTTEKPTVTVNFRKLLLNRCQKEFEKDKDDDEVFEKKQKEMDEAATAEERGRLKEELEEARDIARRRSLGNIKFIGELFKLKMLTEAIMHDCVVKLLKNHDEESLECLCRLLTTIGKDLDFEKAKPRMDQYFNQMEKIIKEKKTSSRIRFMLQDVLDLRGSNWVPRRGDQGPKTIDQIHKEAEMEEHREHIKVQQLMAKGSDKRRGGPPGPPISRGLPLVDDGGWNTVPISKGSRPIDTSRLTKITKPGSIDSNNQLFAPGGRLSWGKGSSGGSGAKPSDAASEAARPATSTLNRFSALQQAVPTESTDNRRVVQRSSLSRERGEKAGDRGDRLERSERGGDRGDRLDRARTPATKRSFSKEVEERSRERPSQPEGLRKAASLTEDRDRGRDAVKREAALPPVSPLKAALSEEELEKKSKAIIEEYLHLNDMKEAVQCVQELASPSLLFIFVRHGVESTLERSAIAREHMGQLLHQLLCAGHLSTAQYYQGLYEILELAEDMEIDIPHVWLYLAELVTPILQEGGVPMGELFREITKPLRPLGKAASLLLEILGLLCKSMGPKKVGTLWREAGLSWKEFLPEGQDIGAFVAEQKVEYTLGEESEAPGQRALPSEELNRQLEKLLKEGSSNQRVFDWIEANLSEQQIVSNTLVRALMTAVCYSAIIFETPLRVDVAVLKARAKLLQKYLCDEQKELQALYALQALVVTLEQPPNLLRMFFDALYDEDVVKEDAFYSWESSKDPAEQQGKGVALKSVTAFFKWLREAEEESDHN
T1 sequence (Q96AT1 whole entry): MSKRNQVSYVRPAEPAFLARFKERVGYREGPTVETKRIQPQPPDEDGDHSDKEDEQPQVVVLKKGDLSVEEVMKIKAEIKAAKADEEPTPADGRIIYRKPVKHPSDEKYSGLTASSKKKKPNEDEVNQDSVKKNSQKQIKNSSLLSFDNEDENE
T2 sequence (Q9Y6D5 whole entry): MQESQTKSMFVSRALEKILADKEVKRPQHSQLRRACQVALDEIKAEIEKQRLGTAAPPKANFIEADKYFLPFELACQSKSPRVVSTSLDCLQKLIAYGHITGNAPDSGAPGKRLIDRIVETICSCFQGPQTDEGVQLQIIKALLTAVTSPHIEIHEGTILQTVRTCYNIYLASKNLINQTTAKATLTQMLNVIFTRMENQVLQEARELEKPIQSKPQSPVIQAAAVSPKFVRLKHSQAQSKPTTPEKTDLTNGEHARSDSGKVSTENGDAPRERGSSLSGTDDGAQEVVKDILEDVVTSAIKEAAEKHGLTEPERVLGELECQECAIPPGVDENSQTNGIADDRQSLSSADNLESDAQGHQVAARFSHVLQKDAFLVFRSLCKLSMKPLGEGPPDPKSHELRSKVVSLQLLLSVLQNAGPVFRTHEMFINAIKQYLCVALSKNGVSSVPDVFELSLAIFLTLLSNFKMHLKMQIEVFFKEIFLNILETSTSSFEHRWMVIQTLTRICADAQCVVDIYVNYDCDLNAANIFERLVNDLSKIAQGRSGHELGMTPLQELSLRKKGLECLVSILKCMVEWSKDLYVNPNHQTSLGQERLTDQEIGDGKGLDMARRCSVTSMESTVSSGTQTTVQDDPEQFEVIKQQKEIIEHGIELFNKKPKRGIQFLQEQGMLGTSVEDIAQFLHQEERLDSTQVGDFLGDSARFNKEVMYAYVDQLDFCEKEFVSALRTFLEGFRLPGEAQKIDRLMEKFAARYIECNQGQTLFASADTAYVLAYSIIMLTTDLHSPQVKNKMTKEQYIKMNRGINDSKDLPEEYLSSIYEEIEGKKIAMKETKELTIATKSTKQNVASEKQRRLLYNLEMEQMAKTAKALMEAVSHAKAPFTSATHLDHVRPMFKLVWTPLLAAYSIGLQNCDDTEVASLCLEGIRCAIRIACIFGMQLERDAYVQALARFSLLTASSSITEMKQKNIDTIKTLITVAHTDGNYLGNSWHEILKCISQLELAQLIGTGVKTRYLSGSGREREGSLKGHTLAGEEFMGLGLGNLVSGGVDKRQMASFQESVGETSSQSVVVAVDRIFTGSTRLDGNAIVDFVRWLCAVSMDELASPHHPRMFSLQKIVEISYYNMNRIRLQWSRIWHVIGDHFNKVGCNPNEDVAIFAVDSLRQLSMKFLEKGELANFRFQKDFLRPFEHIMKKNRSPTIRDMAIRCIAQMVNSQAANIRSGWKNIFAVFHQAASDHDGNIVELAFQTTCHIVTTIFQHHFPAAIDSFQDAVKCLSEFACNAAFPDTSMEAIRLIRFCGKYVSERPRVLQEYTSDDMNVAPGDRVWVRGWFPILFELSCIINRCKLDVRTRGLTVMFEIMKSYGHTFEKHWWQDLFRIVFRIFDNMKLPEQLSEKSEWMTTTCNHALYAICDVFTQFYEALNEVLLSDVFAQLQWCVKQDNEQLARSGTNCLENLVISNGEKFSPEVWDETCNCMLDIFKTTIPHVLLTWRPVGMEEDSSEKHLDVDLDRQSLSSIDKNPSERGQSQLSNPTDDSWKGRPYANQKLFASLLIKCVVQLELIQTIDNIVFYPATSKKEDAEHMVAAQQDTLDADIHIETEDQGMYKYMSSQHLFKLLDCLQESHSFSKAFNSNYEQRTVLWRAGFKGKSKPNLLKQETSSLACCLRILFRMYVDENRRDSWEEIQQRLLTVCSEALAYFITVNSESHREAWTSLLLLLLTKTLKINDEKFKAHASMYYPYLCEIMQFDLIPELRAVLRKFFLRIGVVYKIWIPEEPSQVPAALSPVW
T5 sequence (Q9ULV4 whole entry): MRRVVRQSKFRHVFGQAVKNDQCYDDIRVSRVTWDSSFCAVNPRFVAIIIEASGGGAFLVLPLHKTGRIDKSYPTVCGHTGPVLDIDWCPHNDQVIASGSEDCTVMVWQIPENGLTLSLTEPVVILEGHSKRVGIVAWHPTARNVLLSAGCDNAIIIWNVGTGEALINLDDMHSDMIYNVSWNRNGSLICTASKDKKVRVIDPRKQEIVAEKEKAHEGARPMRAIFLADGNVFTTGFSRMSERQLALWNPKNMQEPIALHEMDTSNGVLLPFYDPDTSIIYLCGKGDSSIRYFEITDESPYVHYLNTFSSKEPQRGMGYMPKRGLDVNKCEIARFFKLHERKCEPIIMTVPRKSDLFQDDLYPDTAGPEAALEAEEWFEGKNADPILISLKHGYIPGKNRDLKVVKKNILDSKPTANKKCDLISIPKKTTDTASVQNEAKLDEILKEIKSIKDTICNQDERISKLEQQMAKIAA

## O=C(NC1CC1)c1ccc(S(=O)(=O)n2cncn2)cc1 [HHS-0101, 4-((1H-1,2,4-triazol-1-yl)sulfonyl)-N-cyclopropylbenzamide]
Q96AT1
  liganded tyrosine site 9: HHS0101.Y (tyrosine sites that showed >80% reductions (SR >5) in probe labeling in cells treated with compounds (liganded sites))
Q9Y6D5
  liganded tyrosine site 1632: HHS0101.Y|HHS0301.Y|HHS0701.Y (tyrosine sites that showed >80% reductions (SR >5) in probe labeling in cells treated with compounds (liganded sites))

## O=C(NCC1CC1)c1ccc(S(=O)(=O)n2cncn2)cc1 [HHS-0201, 4-((1H-1,2,4-triazol-1-yl)sulfonyl)-N-(cyclopropylmethyl)benzamide]
Q14157
  liganded tyrosine site 204: HHS0201.Y (tyrosine sites that showed >80% reductions (SR >5) in probe labeling in cells treated with compounds (liganded sites))
  liganded tyrosine site 214: HHS0201.Y (tyrosine sites that showed >80% reductions (SR >5) in probe labeling in cells treated with compounds (liganded sites))
Q04637
  liganded tyrosine site 103: HHS0201.Y|HHS0301.Y|HHS0401.Y|HHS0701.Y (tyrosine sites that showed >80% reductions (SR >5) in probe labeling in cells treated with compounds (liganded sites))

## O=C(NCc1ccccc1)c1ccc(S(=O)(=O)n2cncn2)cc1 [HHS-0401, 4-((1H-1,2,4-triazol-1-yl)sulfonyl)-N-benzylbenzamide]
Q14157
  liganded tyrosine site 803: HHS0401.Y (tyrosine sites that showed >80% reductions (SR >5) in probe labeling in cells treated with compounds (liganded sites))
Q96AT1
  liganded tyrosine site 109: HHS0401.Y (tyrosine sites that showed >80% reductions (SR >5) in probe labeling in cells treated with compounds (liganded sites))
Q9Y6D5
  liganded tyrosine site 97: HHS0401.Y (tyrosine sites that showed >80% reductions (SR >5) in probe labeling in cells treated with compounds (liganded sites))

## O=C(c1ccc(S(=O)(=O)n2cncn2)cc1)N1CCC(c2ccccc2)CC1 [HHS-0701, (4-((1H-1,2,4-triazol-1-yl)sulfonyl)phenyl)(4-phenylpiperidin-1-yl)methanone]
Q9ULV4
  liganded tyrosine site 304: HHS0701.Y (tyrosine sites that showed >80% reductions (SR >5) in probe labeling in cells treated with compounds (liganded sites))

## O=C(NC1CCCCC1)c1ccc(S(=O)(=O)n2cncn2)cc1 [HHS-0301, 4-((1H-1,2,4-triazol-1-yl)sulfonyl)-N-cyclohexylbenzamide]
Q04637
  liganded tyrosine site 81: HHS0301.Y (tyrosine sites that showed >80% reductions (SR >5) in probe labeling in cells treated with compounds (liganded sites))
  liganded tyrosine site 104: HHS0301.Y|HHS0701.Y (tyrosine sites that showed >80% reductions (SR >5) in probe labeling in cells treated with compounds (liganded sites))
Q9ULV4
  liganded tyrosine site 301: HHS0301.Y (tyrosine sites that showed >80% reductions (SR >5) in probe labeling in cells treated with compounds (liganded sites))
